Test results: PMC5908295 (Oncotarget, 2018)

Key:
[1] = Metabolic stability, liver S9 fraction; assay type: in vitro ADME; details: Human, 37 °C, read-out: Liver S9 fraction t1/2 (converted)
[2] = Total blood cell counts in mice with MV-4-11 tumors; details: treatment day 15
Description: All animals were handled in strict accordance with good animal practice as defined by the relevant national and local animal welfare bodies. SCID and SCID/beige C.B-17 mice were provided by Harlan Laboratories or Charles River Laboratories, and were maintained in pathogen free conditions. For the xenograft experiments, age-matched (9-11 weeks old) females were used. 5×10^6 of MV-4-11 or MOLM-16 cells were suspended in a mixture (1:1, v:v) of PBS with Matrigel (BD Biosciences,) and injected subcutaneously (sc), in a total volume of 100 μL, above the groin on the right hind limb. For MOLM-13 and KG-1 cells, a mixture (3:1, v:v) of PBS and Matrigel HC (BD Bioscience,) was used to inject 5 × 10^6 of cell per mouse subcutaneously (sc), in a total volume of 100 μL. When tumors reached 100-130 mm^3, mice were randomized into uniform groups (6-9 mice per group) and subsequently administered the compound. […] At the end of the experiment, mice were anesthetized with isofluran and blood samples for total cell counts and biochemistry were obtained by retro-orbital bleeding. […] 5×10^6 cells suspended in a mixture (3:1, v:v) of PBS and Matrigel were injected as described above. When the tumor volume reached ~120 mm^3, mice were randomized into uniform groups (5 mice per group) and the compound then administered. […] Tumor volume was monitored every second day and calculated using the formula: TV = (a^2×b)/2, where “a” is the short axis in millimeters, and “b” is the long axis in millimeters. Body weight was assessed every day. […]
Supplementary Table 10: Related to Figure 5C. […] The assessment total
performed on treatment day 15.
RBC – red blood cells, HGB – hemoglobin, HCT – hematocrit, WBC – white blood cells, LYMPH – lymphocytes, MONO
– monocytes, GRA – granulocytes, PLT – platelet, MPV – mean platelet volume.

[3] = Metabolic stability, liver microsomes; assay type: in vitro ADME; details: Mouse, 37 °C, read-out: Liver microsomes t1/2 (converted)
[4] = Pharmacokinetics after oral and intravenous administration; assay type: in vivo, mice (CD-1); details: female, CD-1, plasma, Mouse, Dose PO/IV 50/15 mg/kg
Experimental: therapeutic potential in acute myeloid leukemia
sheet for further calculations.
Three male Beagle dogs were administered

MOLM-6 = assay: MTS viability assay, 72 h; details: 72 h
Experimental: 15-25 ×10^3 of MV-4-11, MOLM-13, MOLM-14, MOLM-16, KG-1, Eol-1, SKM-1, PL-21, GDM-1, SKNO-1, RS4;11, Kasumi-3 and Kasumi-6 cells were seeded in 150 μL of culture medium onto individual wells in a 96 well plates, in triplicates. On the same day, 50 μL of medium containing tested inhibitor was added to the wells. Each compound was tested at 8 concentrations, in triplicates. As a negative control, the medium containing 0.1% DMSO was used. […] Staurosporine was used at 10 μM as a positive control. One the day of drug addition, basal signal from untreated cells was measured from in triplicate to determine time zero (T0). […] GI50 and LC50 values were extrapolated from a variable (four-parameter) dose-response curve fitted in GraphPad Prism.

CYP2B6 = target: T1, CYP2B6 (Homo sapiens, UniProt P20813); assay: CYP isoforms inhibition; assay type: in vitro ADME; details: 5-dose, 3-fold dilution starting at 30 µM
T1 construct: Cambridge Bioscience Limited (ran the assay)
T1 sequence (P20813 whole entry, canonical isoform): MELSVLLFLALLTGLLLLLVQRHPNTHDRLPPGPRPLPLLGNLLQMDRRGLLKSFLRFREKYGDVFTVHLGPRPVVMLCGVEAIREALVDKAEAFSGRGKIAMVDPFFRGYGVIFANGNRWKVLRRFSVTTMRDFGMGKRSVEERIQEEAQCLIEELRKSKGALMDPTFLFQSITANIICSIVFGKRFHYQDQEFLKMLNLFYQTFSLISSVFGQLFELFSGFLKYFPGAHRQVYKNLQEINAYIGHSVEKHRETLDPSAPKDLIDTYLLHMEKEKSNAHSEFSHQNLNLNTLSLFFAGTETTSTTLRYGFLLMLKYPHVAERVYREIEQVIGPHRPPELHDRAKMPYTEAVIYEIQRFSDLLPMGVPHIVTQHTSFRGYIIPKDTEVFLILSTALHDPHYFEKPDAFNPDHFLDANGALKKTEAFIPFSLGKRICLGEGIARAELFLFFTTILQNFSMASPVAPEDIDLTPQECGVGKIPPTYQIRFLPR
Experimental: (§1) or absence of enzyme cofactors. The assay was performed microsomes. (Supplementary Table 7).
(§2) with the respective reference samples (i.e. without measured at Cambridge Bioscience Limited (except
(§3) cofactors). After incubation, drug transformation by liver CYP1A2 inhibition which was measured in-house). The
(§4) enzymes was terminated by adding cold acetonitrile.
(§5) loss of compound was determined by LC-MS analysis. serial dilution starting at 30 μM. The control compound
(§6) The analysis of two standard compounds (i.e. positive a very weak potential for CYP inhibition with IC50
(§7) and negative controls) was included. […]

CYP2C8 = target: T2, CYP2C8 (Homo sapiens, UniProt P10632); assay: CYP isoforms inhibition; assay type: in vitro ADME; details: 5-dose, 3-fold dilution starting at 30 µM
T2 construct: Cambridge Bioscience Limited (ran the assay)
T2 sequence (P10632 whole entry, canonical isoform): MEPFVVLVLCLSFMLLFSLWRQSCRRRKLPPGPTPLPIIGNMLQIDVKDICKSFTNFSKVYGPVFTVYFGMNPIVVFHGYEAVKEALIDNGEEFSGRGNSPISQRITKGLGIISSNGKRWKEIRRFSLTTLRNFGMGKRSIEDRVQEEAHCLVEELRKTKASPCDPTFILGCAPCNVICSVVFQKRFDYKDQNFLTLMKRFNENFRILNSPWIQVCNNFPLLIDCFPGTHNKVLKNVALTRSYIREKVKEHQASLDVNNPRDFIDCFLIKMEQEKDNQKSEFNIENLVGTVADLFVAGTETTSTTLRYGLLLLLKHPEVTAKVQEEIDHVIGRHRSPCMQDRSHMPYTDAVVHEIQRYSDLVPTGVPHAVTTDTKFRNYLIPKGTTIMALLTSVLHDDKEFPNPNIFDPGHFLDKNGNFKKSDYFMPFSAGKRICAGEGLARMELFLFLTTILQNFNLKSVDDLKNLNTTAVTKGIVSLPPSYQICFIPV
Experimental: as §1, §2, §3, §4, §5, §6, §7

CYP1A2 = CYP1A2 (Homo sapiens, UniProt P05177); assay: CYP isoforms inhibition; assay type: in vitro ADME; details: 5-dose, 3-fold dilution starting at 30 µM; in-house
CYP1A2, sequence (P05177 whole entry, canonical isoform): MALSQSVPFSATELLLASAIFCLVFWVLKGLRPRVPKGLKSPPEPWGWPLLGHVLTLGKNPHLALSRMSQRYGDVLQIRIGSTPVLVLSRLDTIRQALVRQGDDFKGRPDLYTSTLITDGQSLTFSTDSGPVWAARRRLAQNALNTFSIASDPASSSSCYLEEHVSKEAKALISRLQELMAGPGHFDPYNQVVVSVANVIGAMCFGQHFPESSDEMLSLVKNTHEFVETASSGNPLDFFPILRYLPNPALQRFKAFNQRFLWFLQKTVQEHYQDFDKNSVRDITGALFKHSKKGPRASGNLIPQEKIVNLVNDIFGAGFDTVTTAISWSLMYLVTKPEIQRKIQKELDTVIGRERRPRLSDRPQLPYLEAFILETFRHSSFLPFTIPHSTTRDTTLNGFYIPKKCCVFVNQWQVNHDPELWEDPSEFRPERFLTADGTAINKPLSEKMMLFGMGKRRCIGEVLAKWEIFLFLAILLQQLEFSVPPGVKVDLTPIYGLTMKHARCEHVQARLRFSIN
Experimental: as §1, §2, §3, §4, §5, §6, §7

CYP2D6 = target: T3, CYP2D6 (Homo sapiens, UniProt P10635); assay: CYP isoforms inhibition; assay type: in vitro ADME; details: 5-dose, 3-fold dilution starting at 30 µM
T3 construct: Cambridge Bioscience Limited (ran the assay)
T3 sequence (P10635 whole entry, canonical isoform): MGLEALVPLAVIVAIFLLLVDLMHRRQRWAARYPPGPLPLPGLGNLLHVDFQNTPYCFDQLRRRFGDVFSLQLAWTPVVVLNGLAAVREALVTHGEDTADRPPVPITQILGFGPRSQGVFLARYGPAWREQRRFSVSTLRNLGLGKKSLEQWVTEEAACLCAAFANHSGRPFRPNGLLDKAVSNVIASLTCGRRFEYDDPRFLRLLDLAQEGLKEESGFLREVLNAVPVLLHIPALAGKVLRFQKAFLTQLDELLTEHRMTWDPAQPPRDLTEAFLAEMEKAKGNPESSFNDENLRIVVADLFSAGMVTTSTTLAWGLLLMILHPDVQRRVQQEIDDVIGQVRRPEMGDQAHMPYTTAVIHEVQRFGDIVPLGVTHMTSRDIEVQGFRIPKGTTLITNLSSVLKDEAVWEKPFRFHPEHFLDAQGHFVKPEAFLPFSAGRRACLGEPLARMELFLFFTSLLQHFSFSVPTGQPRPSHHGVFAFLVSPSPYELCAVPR
Experimental: as §1, §2
(§8) cofactors). After incubation, drug transformation by liver CYP1A2 inhibition which was measured in-house). […]
(§9) The control compound
as §6, §7

CYP2C19 = target: T4, CYP2C19 (Homo sapiens, UniProt P33261); assay: CYP isoforms inhibition; assay type: in vitro ADME; details: 5-dose, 3-fold dilution starting at 30 µM
T4 construct: Cambridge Bioscience Limited (ran the assay)
T4 sequence (P33261 whole entry, canonical isoform): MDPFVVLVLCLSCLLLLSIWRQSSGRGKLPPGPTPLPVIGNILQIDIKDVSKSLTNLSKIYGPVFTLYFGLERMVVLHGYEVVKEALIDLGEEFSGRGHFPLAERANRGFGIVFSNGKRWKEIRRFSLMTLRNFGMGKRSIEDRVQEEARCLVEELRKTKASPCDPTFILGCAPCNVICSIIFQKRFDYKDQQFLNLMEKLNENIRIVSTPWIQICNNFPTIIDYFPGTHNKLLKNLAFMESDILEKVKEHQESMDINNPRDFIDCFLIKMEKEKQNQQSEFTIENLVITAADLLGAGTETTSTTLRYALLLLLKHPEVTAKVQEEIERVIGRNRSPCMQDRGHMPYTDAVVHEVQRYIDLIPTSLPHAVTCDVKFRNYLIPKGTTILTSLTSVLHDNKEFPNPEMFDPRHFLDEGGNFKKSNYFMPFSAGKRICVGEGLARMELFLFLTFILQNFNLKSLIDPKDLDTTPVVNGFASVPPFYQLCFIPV
Experimental: as §1, §2, §8, §9, §6, §7

FLT3wt = FLT3wt (Homo sapiens, UniProt P36888); assay: KINOMEscan Kd (DiscoverX); assay type: binding
FLT3wt, sequence (P36888 27-993): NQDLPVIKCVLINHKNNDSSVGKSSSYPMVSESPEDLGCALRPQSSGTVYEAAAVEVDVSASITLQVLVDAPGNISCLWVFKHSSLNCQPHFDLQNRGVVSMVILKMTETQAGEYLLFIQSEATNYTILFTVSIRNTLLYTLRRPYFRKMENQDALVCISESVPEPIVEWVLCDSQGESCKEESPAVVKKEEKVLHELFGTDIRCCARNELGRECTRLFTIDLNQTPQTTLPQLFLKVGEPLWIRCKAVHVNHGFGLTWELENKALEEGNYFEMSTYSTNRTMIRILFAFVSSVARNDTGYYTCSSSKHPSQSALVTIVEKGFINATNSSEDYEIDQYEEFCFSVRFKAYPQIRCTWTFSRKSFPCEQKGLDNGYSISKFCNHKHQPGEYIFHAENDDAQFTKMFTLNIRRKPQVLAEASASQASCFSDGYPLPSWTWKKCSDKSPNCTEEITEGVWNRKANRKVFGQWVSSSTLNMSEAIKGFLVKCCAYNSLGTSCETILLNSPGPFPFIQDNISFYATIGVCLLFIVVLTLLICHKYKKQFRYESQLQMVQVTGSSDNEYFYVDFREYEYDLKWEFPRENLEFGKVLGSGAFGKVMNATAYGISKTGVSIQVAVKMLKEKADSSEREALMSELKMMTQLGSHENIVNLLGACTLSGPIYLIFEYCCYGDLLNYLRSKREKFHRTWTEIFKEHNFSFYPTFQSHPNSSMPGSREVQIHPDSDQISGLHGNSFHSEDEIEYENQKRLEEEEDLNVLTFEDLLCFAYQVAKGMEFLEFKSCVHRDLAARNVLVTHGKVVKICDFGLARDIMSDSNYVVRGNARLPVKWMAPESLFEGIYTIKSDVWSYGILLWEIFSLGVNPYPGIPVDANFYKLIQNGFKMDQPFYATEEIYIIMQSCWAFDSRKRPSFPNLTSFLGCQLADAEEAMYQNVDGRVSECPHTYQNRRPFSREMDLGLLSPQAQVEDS

PIM1 = PIM1 (Homo sapiens, UniProt P11309); assay: KINOMEscan Kd (DiscoverX); assay type: binding
PIM1, sequence (P11309 whole entry): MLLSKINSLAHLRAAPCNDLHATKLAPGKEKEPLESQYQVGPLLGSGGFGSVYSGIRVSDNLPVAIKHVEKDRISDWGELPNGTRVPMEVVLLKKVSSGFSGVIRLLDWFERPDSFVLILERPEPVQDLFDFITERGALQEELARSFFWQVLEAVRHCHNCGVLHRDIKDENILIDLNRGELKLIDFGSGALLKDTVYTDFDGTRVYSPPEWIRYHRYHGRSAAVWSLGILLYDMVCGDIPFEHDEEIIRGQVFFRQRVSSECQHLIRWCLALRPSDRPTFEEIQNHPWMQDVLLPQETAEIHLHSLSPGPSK

MOLM-13 xenografts = assay: MOLM-13 subcutaneous xenograft; assay type: in vivo; details: MOLM-13, SCID mice; AC220 10 mg/kg QD, other doses not given
Description: All animals were handled in strict accordance with good animal practice as defined by the relevant national and local animal welfare bodies. SCID and SCID/beige C.B-17 mice were provided by Harlan Laboratories or Charles River Laboratories, and were maintained in pathogen free conditions. For the xenograft experiments, age-matched (9-11 weeks old) females were used. 5×10^6 of MV-4-11 or MOLM-16 cells were suspended in a mixture (1:1, v:v) of PBS with Matrigel (BD Biosciences,) and injected subcutaneously (sc), in a total volume of 100 μL, above the groin on the right hind limb. For MOLM-13 and KG-1 cells, a mixture (3:1, v:v) of PBS and Matrigel HC (BD Bioscience,) was used to inject 5 × 10^6 of cell per mouse subcutaneously (sc), in a total volume of 100 μL. When tumors reached 100-130 mm^3, mice were randomized into uniform groups (6-9 mice per group) and subsequently administered the compound. […] At the end of the experiment, mice were anesthetized with isofluran and blood samples for total cell counts and biochemistry were obtained by retro-orbital bleeding. […] 5×10^6 cells suspended in a mixture (3:1, v:v) of PBS and Matrigel were injected as described above. […] Tumor volume was monitored every second day and calculated using the formula: TV = (a^2×b)/2, where “a” is the short axis in millimeters, and “b” is the long axis in millimeters. Body weight was assessed every day.

CC(C)n1c(C2CCNCC2)nc2c([N+](=O)[O-])c(Br)c(Br)cc21 [SEL24-B489, 5,6-dibromo-4-nitro-2-(piperidin-4-yl)-1-(propan-2-yl)-1H-1,3-benzodiazole]
half-life at 1 µM [1]: 9.9 h | GRA ([2]; SEL24-B489 25 mg/kg): 42.2% | HCT ([2]; SEL24-B489 25 mg/kg): 48.8% | HGB ([2]; SEL24-B489 25 mg/kg): 14.6 g/dL | LYMPH ([2]; SEL24-B489 25 mg/kg): 47.2% | MONO ([2]; SEL24-B489 25 mg/kg): 10.6% | MPV ([2]; SEL24-B489 25 mg/kg): 6.1 μm3 | PLT ([2]; SEL24-B489 25 mg/kg): 1016 103/mm3 | RBC ([2]; SEL24-B489 25 mg/kg): 9.8 106/mm3 | WBC ([2]; SEL24-B489 25 mg/kg): 3.1 103/mm3 | GRA ([2]; SEL24-B489 50 mg/kg): 49.1% | HCT ([2]; SEL24-B489 50 mg/kg): 47.4% | HGB ([2]; SEL24-B489 50 mg/kg): 14.4 g/dL | LYMPH ([2]; SEL24-B489 50 mg/kg): 40.3% | MONO ([2]; SEL24-B489 50 mg/kg): 10.5% | MPV ([2]; SEL24-B489 50 mg/kg): 5.7 μm3 | PLT ([2]; SEL24-B489 50 mg/kg): 1286 103/mm3 | RBC ([2]; SEL24-B489 50 mg/kg): 9.6 106/mm3 | WBC ([2]; SEL24-B489 50 mg/kg): 4.9 103/mm3 | half-life at 1 µM [3]: 7.2 h | Cmax ([4]; 50 mg/kg): 2180 ng/mL | Tmax ([4]; 50 mg/kg): 4 h | bioavailability ([4]; 50 mg/kg, read-out: F (bioavailability)): 62% | AUC(0-t) [4]: 26200 ng·h/mL | half-life [4]: 5.2 h | GI50 (MOLM-6): 0.449 µM | CC50 (MOLM-6; read-out: LC50): 7.21 µM | IC50 (CYP2B6): > 40 µM | IC50 (CYP2C8): > 30 µM | IC50 (CYP1A2): > 30 µM | IC50 (CYP2D6): 10 µM | IC50 (CYP2C19): > 70 µM | Kd (FLT3wt): 0.16 µM | Kd (PIM1): 0.002 µM | TGI (MOLM-13 xenografts): ~ 50%
